The values that follow come from patent US12324802B2, “Modulators of cystic fibrosis transmembrane conductance regulator” (Vertex Pharmaceuticals Incorporated, priority 2020, dated 2025).

Like-named read-outs stand apart in the source and are kept apart here.

For data set [1] the following is noted: from CC(C)(C)OC(=O)NCC(C)(C)OCCC[C@@](OCc1ccccc1)(c1nnc(-c2nc(Cl)c(C(F)(F)F)cc2[N+](=O)[O-])o1)C(F)(F)F; snar bond; 14-membered ring; TFA; then DIEA; DCM; 0.96 mM; 25.0 °C; 2 steps.
Assay in data set [2]: not given
This is another data set of the same source.

On to `CC1(C)CNc2nc(c([N+](=O)[O-])cc2C(F)(F)F)C2=NN=C(O2)[C@@](OCc2ccccc2)(C(F)(F)F)CCCO1`, for which, in data set [1], the ring closure, crude yield is 99%. The compound `CN1CCN(C)c2nc(c(NC(=O)OC(C)(C)C)cc2C(F)(F)F)C2=NN=C(O2)C(OCc2ccccc2)(C(F)(F)F)CCC1=O` (stereo not drawn) came in with a ring closure, yield after HPLC (from CNCCN(C)c1nc(-c2nnc(C(CCC(=O)O)(OCc3ccccc3)C(F)(F)F)o2)c(NC(=O)OC(C)(C)C)cc1C(F)(F)F, amide bond, 14-membered ring, HATU/DIEA, DMF, 9.16 mM, 25.0 °C, 3.0 h) of 70%. Compound “6-benzyloxy-12,12-dimethyl-17-nitro-6,15-bis(trifluoromethyl)-19-oxa-3,4,13,18-tetrazatricyclo[12.3.1.12,5]nonadeca-1(18),2,4,8,14,16-hexaen-7-ol (E/Z olefin mixture, cis diol)” registered a ring closure, yield after HPLC (rcm bond, 14-membered ring, Zhan catalyst-1B, 70.0 °C) of 49%.

With `CC(=O)OC1C=CC[C@](OCc2ccccc2)(C(F)(F)F)C2=NN=C(O2)c2nc(c(C(F)(F)F)cc2[N+](=O)[O-])NC(C)(C)C1` (mixture of isomers), the ring closure, isolated yield in data set [2] (from C=CC[C@@](OCc1ccccc1)(c1nnc(-c2nc(NC(C)(C)CC(C=C)OC(C)=O)c(C(F)(F)F)cc2[N+](=O)[O-])o1)C(F)(F)F, rcm bond, 14-membered ring, Zhan catalyst-1B, toluene, 10.6 mM, 110.0 °C, 19.0 h) came to 20%.

Take `CC(C)(C)OC(=O)N(C(=O)OC(C)(C)C)c1cc(C(F)(F)F)c2nc1-c1nnc(o1)[C@@](OCc1ccccc1)(C(F)(F)F)CCC=CCC(c1ccccn1)N2` (mixture of isomers): the ring closure, isolated yield in data set [2] (from C=CCC[C@@](OCc1ccccc1)(c1nnc(-c2nc(NC(CC=C)c3ccccn3)c(C(F)(F)F)cc2N(C(=O)OC(C)(C)C)C(=O)OC(C)(C)C)o1)C(F)(F)F, rcm bond, 14-membered ring, Zhan catalyst-1B, DCE, 1.5 mM, 85.0 °C, 12.0 h) was 24%. As to `CC(C)(C)OC(=O)Nc1cc(C(F)(F)F)c2nc1-c1nnc(o1)C(OCc1ccccc1)(C(F)(F)F)CC=CC[C@@H]1CCCN21` (mixture of isomers), the ring closure, isolated yield in data set [2] (from C=CC[C@@H]1CCCN1c1nc(-c2nnc(C(CC=C)(OCc3ccccc3)C(F)(F)F)o2)c(NC(=O)OC(C)(C)C)cc1C(F)(F)F, rcm bond, 13-membered ring, Zhan-1B (two charges), DCE, 6.47 mM, 80.0 °C, 36.0 h) came out at 6.5%.

`CC(C)(C)OC(=O)Nc1cc(C(F)(F)F)c2nc1-c1nnc(o1)C(OCc1ccccc1)(C(F)(F)F)CCC=CC1CCCN21` (mixture of isomers): the ring closure, yield after HPLC (from C=CCCC(OCc1ccccc1)(c1nnc(-c2nc(N3CCCC3C=C)c(C(F)(F)F)cc2NC(=O)OC(C)(C)C)o1)C(F)(F)F, rcm bond, 13-membered ring, Zhan-1B (two charges), DCE, 6.25 mM, 85.0 °C, 23.0 h) is 3%. For the compound `CC(C)(C)OC(=O)Nc1cc(C(F)(F)F)c2nc1-c1nnc(o1)[C@@](O)(C(F)(F)F)c1cc(ccc1F)C=CC[C@@H]1CCCN21` (mixture of isomers), the ring closure, isolated yield in data set [2] (from C=CC[C@@H]1CCCN1c1nc(-c2nnc([C@](O)(c3cc(I)ccc3F)C(F)(F)F)o2)c(NC(=O)OC(C)(C)C)cc1C(F)(F)F, cc_pd bond, 15-membered ring, Pd(OAc)2/P(o-tol)3/Et3N, MeCN, 9.5 mM, 80.0 °C, 22.0 h) was 58%. Take `CC(C)(C)OC(=O)Nc1cc(C(F)(F)F)c2nc1-c1nnc(o1)[C@@](OCc1ccccc1)(C(F)(F)F)CCC=CCC(C(=O)N1CCCC1)N2` (mixture of isomers): in data set [2] (from C=CCC[C@@](OCc1ccccc1)(c1nnc(-c2nc(NC(CC=C)C(=O)N3CCCC3)c(C(F)(F)F)cc2NC(=O)OC(C)(C)C)o1)C(F)(F)F, rcm bond, 14-membered ring, Zhan catalyst-1B, DCE, 1.4 mM, 75.0 °C, 2.0 h), the ring closure, isolated yield is 66%.

In the case of `CC(C)(C)OC(=O)Nc1cc(C(F)(F)F)c2nc1-c1nnc(o1)[C@](O)(C(F)(F)F)c1cc(ccc1F)C=CC[C@@H]1CCCN21` (mixture of isomers), the ring closure, isolated yield in data set [2] (from C=CC[C@@H]1CCCN1c1nc(-c2nnc([C@@](O)(c3cc(I)ccc3F)C(F)(F)F)o2)c(NC(=O)OC(C)(C)C)cc1C(F)(F)F, cc_pd bond, 15-membered ring, Pd(OAc)2/P(o-tol)3/Et3N, MeCN, 9.5 mM, 80.0 °C, 22.0 h) amounted to 56%. Consider `CC1(C)CC=CCC[C@](OCc2ccccc2)(C(F)(F)F)C2=NN=C(O2)c2nc(c(C(F)(F)F)cc2[N+](=O)[O-])N1` (mixture of isomers), for which, in data set [2] (from [2H]C([2H])([2H])C(CC=C)(Nc1nc(-c2nnc([C@@](CCC=C)(OCc3ccccc3)C(F)(F)F)o2)c([N+](=O)[O-])cc1C(F)(F)F)C([2H])([2H])[2H], rcm bond, 14-membered ring, Zhan catalyst-1B, DCE, 11.0 mM, 75.0 °C, 3.0 h), the ring closure, isolated yield was found to be 37.8%. With `CC1(C)CCC=CC[C@](OCc2ccccc2)(C(F)(F)F)C2=NN=C(O2)c2nc(c(C(F)F)cc2[N+](=O)[O-])N1` (mixture of isomers), where the note is “from C=CCCC(C)(C)Nc1nc(-c2nnc([C@@](CC=C)(OCc3ccccc3)C(F)(F)F)o2)c([N+](=O)[O-])cc1C(F)F, rcm bond, 14-membered ring, Zhan catalyst-1B, DCE, 5.67 mM, 65.0 °C, 4.5 h”, the ring closure, yield after HPLC came out at 20%.

`CC1(COCc2ccccc2)CC=CCC[C@](OCc2ccccc2)(C(F)(F)F)C2=NN=C(O2)c2nc(c(C(F)(F)F)cc2[N+](=O)[O-])N1` (mixture of isomers): the ring closure, isolated yield in data set [2] (from C=CCC[C@@](OCc1ccccc1)(c1nnc(-c2nc(NC(C)(CC=C)COCc3ccccc3)c(C(F)(F)F)cc2[N+](=O)[O-])o1)C(F)(F)F, rcm bond, 14-membered ring, Zhan catalyst-1B, DCE, 2.83 mM, 60.0 °C, 3.17 h) stood at 75%. The compound `O=[N+]([O-])c1cc(C(F)(F)F)c2nc1-c1nnc(o1)-c1c(cccc1OCc1ccccc1)CC=CC[C@@H]1CCCN21` (mixture of isomers) returned a ring closure, isolated yield in data set [2] (from C=CCc1cccc(OCc2ccccc2)c1-c1nnc(-c2nc(N3CCC[C@H]3CC=C)c(C(F)(F)F)cc2[N+](=O)[O-])o1, rcm bond, 14-membered ring, Zhan-1B, DCE, 7.24 mM, 70.0 °C, 5.0 h) of 26%. The compound `O=[N+]([O-])c1cc(C(F)(F)F)c2nc1-c1nnc(o1)[C@@](OCc1ccccc1)(C(F)(F)F)CCC=CCC(Cc1ccccc1)N2` (mixture of isomers) displayed a ring closure, isolated yield in data set [2] (from C=CCC[C@@](OCc1ccccc1)(c1nnc(-c2nc(NC(CC=C)Cc3ccccc3)c(C(F)(F)F)cc2[N+](=O)[O-])o1)C(F)(F)F, rcm bond, 14-membered ring, Zhan catalyst-1B, DCE, 9.18 mM, 75.0 °C, 2.0 h) of 19%. In turn, `O=[N+]([O-])c1cc(C(F)(F)F)c2nc1-c1nnc(o1)[C@@](OCc1ccccc1)(C(F)(F)F)CCC=CCC(c1ncccn1)N2` (mixture of isomers) showed a ring closure, isolated yield in data set [2] (from C=CCC[C@@](OCc1ccccc1)(c1nnc(-c2nc(NC(CC=C)c3ncccn3)c(C(F)(F)F)cc2[N+](=O)[O-])o1)C(F)(F)F, rcm bond, 14-membered ring, Zhan catalyst-1B, DCE, 2.66 mM, 83.0 °C, 16.0 h) of 49%. For the compound `O=[N+]([O-])c1cc(C(F)(F)F)c2nc1-c1nnc(o1)[C@@](OCc1ccccc1)(C(F)(F)F)CCC=CCC1(CCC1)N2` (mixture of isomers), the ring closure, isolated yield in data set [2] (from C=CCC[C@@](OCc1ccccc1)(c1nnc(-c2nc(NC3(CC=C)CCC3)c(C(F)(F)F)cc2[N+](=O)[O-])o1)C(F)(F)F, rcm bond, 14-membered ring, Zhan catalyst-1B, DCE, 3.27 mM, 85.0 °C, 5.0 h) is 68%. In data set [2] (from C=CCC[C@@](OCc1ccccc1)(c1nnc(-c2nc(NC3(CC=C)CCCC3)c(C(F)(F)F)cc2[N+](=O)[O-])o1)C(F)(F)F, rcm bond, 14-membered ring, Zhan catalyst-1B, DCE, 6.3 mM, 70.0 °C, 2.5 h), `O=[N+]([O-])c1cc(C(F)(F)F)c2nc1-c1nnc(o1)[C@@](OCc1ccccc1)(C(F)(F)F)CCC=CCC1(CCCC1)N2` (mixture of isomers) showed a ring closure, isolated yield of 27%. Consider `O=[N+]([O-])c1cc(C(F)(F)F)c2nc1-c1nnc(o1)[C@@](OCc1ccccc1)(C(F)(F)F)CCC=CCC1(CCOC1)N2` (mixture of isomers), for which the ring closure, isolated yield in data set [2] (from C=CCC[C@@](OCc1ccccc1)(c1nnc(-c2nc(NC3(CC=C)CCOC3)c(C(F)(F)F)cc2[N+](=O)[O-])o1)C(F)(F)F, rcm bond, 14-membered ring, Zhan catalyst-1B, DCE, 3.17 mM, 60.0 °C, 3.75 h) amounted to 82%. `O=[N+]([O-])c1cc(C(F)(F)F)c2nc1-c1nnc(o1)[C@@](OCc1ccccc1)(C(F)(F)F)CCC=CCC1(CCOCC1)N2` (mixture of isomers) gave a ring closure, isolated yield in data set [2] (from C=CCC[C@@](OCc1ccccc1)(c1nnc(-c2nc(NC3(CC=C)CCOCC3)c(C(F)(F)F)cc2[N+](=O)[O-])o1)C(F)(F)F, rcm bond, 14-membered ring, Zhan catalyst-1B, DCE, 3.13 mM, 60.0 °C, 3.75 h) of 80%.

Regarding “(6R)-6-benzyloxy-17-(tert-butoxycarbonylamino)-6,15-bis(trifluoromethyl)-19-oxa-3,4,13,18-tetrazatricyclo[12.3.1.12,5]nonadeca-1(17),2,4,9,14(18),15-hexaene-12-carboxylic acid (E/Z mixture)”, the ring closure, isolated yield in data set [2] (rcm bond, 14-membered ring, Zhan catalyst-1B, then LiOH, DCE, 0.99 mM, 75.0 °C, 2 steps) was 21%.
